Data: article doi:10.1101/615575v1 (biorxiv, 2019)

Molecular target: PdtaS (PdtaS-EGFP; mtPdtaS; Rv3220c) (Mycobacterium tuberculosis, UniProt P9WGL5)
Assay: biochemical

Sequence of PdtaS (PdtaS-EGFP; mtPdtaS; Rv3220c) (P9WGL5 whole entry): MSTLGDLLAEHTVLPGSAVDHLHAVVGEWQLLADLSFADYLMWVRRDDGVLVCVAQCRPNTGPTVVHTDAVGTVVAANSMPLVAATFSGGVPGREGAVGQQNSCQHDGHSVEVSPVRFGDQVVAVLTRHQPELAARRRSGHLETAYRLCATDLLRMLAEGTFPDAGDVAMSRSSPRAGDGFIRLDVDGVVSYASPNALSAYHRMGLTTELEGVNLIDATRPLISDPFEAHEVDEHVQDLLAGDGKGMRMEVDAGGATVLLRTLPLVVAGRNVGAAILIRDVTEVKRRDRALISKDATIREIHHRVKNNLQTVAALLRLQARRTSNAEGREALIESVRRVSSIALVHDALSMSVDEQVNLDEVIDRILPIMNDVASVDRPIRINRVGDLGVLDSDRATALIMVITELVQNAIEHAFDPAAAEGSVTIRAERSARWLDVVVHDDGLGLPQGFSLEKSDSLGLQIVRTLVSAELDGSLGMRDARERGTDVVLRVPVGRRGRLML

Question: Which Kd does the source give for Nc1nc2c(ncn2[C@@H]2O[C@@H]3CO[P@](=O)(O)O[C@H]4[C@@H](O)[C@H](n5cnc6c(=O)[nH]c(N)nc65)O[C@@H]4CO[P@](=O)(O)O[C@H]3[C@H]2O)c(=O)[nH]1 [c-di-GMP] here?
Answer: 326 ± 107 nM
